Data on 40 compounds can be found in PubChem BioAssay (NCI).

Each structure is given as a SMILES string. Where “and” joins values, the source holds several entries; their conditions need not be identical. Equal entries are not always repeated.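 Compound exposure: 48 hours, 5 concentrations, 96-well plates. Abbreviation: GI50, concentration required for 50% inhibition of growth. TGI denotes the concentration required for complete inhibition of growth.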 Where only a bound is given, the exact number is not on record here.

This assay deals with MDA-MB-468 breast. Briefly: DTP human tumour cell line panel, 48 h.
For the compound `COC(=O)[C@H](Cc1cnc[nH]1)NC(=O)[C@@H](NC(=O)Nc1cc(C(F)(F)F)cc(C(F)(F)F)c1)C(C)C`, the GI50 (as a rule, the concentration giving 50% growth inhibition) was 11.1 µM and the TGI (usually the concentration at which net growth stops) was found to be 25.6 µM. The corresponding values for `Cc1cccc2nc3ccccc3c(Nc3ccc(NS(C)(=O)=O)cc3)c12` are 8.53 µM and 26.3 µM. On to `COc1cc(OC)cc(-c2n/c(=C\c3c(O)[nH]c4ccc(OC)cc34)cc3c2=Nc2ccccc2-3)c1`, for which the GI50 was 12.1 µM and the concentration for total growth inhibition (TGI) was 29.8 µM. On to `CCC(C)Nc1ccc(N)cc1` (centres undefined), for which the GI50 was 2.05 µM and the TGI amounted to 6.51 µM.

Take `O=C(Nc1ccccc1)Nc1ccc2cc3ccc(NC(=O)Nc4ccccc4)cc3nc2c1`: the GI50 was 0.579 µM and the TGI was 1.92 µM. For the compound `CNC(=O)c1c(NC(=O)c2ccc(C(C)(C)C)cc2)sc2c(CN(C)C)c(O)ccc12`, the GI50 was 1.67 µM and the total growth inhibition concentration (TGI) was determined as 3.36 µM.

`CNC(=O)c1cc(Oc2ccc(NC(=O)Nc3ccc(Cl)c(C(F)(F)F)c3)c(F)c2)ccn1`: the GI50 was 2.06 µM and 1.67 µM; the TGI is 5.58 µM and 7.93 µM. As for `COc1cc(Nc2ncc(-c3ccccc3)o2)cc(OC)c1`, the GI50 is 7.94 µM and the TGI is more than 25 µM.

Regarding `NC(=O)c1cc([N+](=O)[O-])c(Cl)c([N+](=O)[O-])c1Cl`, the GI50 is 0.188 µM and the TGI worked out at 0.436 µM. As for `COc1ccc(C/C(=C(\C)c2ccc(OCCN3CCCC3)cc2)c2ccc(OCCN3CCCC3)cc2)cc1`, the GI50 was 1.62 µM and the total growth inhibition concentration (TGI) was found to be 3.14 µM. For `O=C(N/N=C\c1ccc(N(CCCl)CCCl)cc1[N+](=O)[O-])c1cccnc1`, in that order: more than 100 µM and more than 100 µM. For `CC1(C)CNc2cc(NC(=O)c3cccnc3NCc3ccncc3)ccc21`, in that order: 12.7 µM and 66.2 µM. The corresponding values for `CC(C)(C)c1ccc(Oc2ccc(N)cn2)cc1` are 28.3 µM and more than 100 µM.

As to `Nc1ccc(C2=CC(c3ccc(Cl)cc3)N3C=CSC3=N2)cc1` (centres undefined), the GI50 was 1.9 µM and the TGI came to 4.29 µM. For `COc1ncc(Nc2ncc([C@@H](C)N3CCN(S(C)(=O)=O)CC3)cc2-c2nc(C)nc(N)n2)cc1F`, in that order: less than 0.0148 µM and 0.16 µM. For `CNC(=O)c1c(NC(=O)c2ccc(C(C)(C)C)cc2)sc2c1CCC(=O)C2`, in that order: 0.411 µM and 2.07 µM. Take `COc1ccc(CN2c3ccccc3Sc3ccccc32)c(C(F)(F)F)c1`: the GI50 is 0.275 µM and the TGI is 13.6 µM.

With `CCCCCCCCCCCCCCCCCCn1cc[n+](C)c1`, the GI50 was 0.215 µM and the TGI came out at 1.64 µM. The corresponding values for `COc1cc(/C=N/Nc2ncnc3c2cnn3-c2ccccc2)ccc1O` are 4.93 µM and more than 25 µM.

For `Nc1nc([Se])c2ncn(C3OC(CO)C(O)C3O)c2n1` (centres undefined), the GI50 was 50.2 µM and the TGI was more than 100 µM. Regarding `COCc1c(-c2cc3cc(C)cc(OC)c3s2)c2c(N)ncnn2c1CN1CCNC(=O)C1`, the GI50 was 1.76 µM and the TGI is 7.46 µM. The corresponding values for `CCN(Cc1ccccc1)C1CCN(Cc2cc(Br)ccc2O)CC1` are 15.1 µM and 40.8 µM. For `COc1cccc(CC(C)=C(c2ccc(OCCN3CCCCC3)cc2)c2ccc(OCCN3CCCCC3)cc2)c1`, in that order: 0.641 µM and 2.71 µM. For `CC1C(C)N(C(=O)CCl)c2ccccc2N1C(=O)CCl` (centres undefined), in that order: 0.296 µM and 1.21 µM.

For the compound `Cc1ccccc1NC(=O)c1sc2nc(C)c(C(=O)/C=C/c3ccccc3)cc2c1N`, the GI50 is 0.927 µM and the total growth inhibition concentration (TGI) was determined as 1.82 µM. `CCC(C)[C@H](NC(=O)Nc1cc(C(F)(F)F)cc(C(F)(F)F)c1)C(=O)N[C@@H](Cc1cn(C)cn1)C(=O)OC` (some centres undefined): the GI50 is 0.476 µM and the TGI was found to be 0.971 µM.

Turning to `COc1ccc2c(c1)c(-c1nc(-c3c[nH]c4ccncc34)cs1)cn2C`, the GI50 was 0.442 µM and the TGI stood at 1.85 µM. On to `CCOC(=O)Oc1cc2c(c(OC)c1OC)-c1ccc(OC)c(=O)cc1C(NC(C)=O)CC2` (centres undefined), for which the GI50 was less than 0.01 µM and the TGI is more than 100 µM. The corresponding values for `COC12C=C/C(=C(/C(=O)OCc3ccccn3)C(=O)CCCCCCCCC3(OC)C=C/C(=C(/C(=O)OCc4ccccn4)C(=O)CCCCCCCC1)O3)O2` are 0.314 µM and 1.15 µM. Turning to `CC1=C(SCCC(=O)OC(C[Se]C2=C(C)C(=O)c3ccccc3C2=O)C(=O)NCCCCCC(=O)OCc2ccccc2)C(=O)c2ccccc2C1=O` (centres undefined), the GI50 is 3 µM and the TGI amounted to 8.54 µM. For `CC(N)(Cc1c[nH]c2cccc(F)c12)C(=O)O` (centres undefined), in that order: more than 1000 µM and more than 1000 µM. The corresponding values for `COc1cc(/C=C/C(=O)/C=C/c2ccc(-n3ccnc3C)cc2)ccc1O` are 2.06 µM and 4.72 µM. For `COc1ccc2c(c1OC)CO[C@@H]2[C@H]1c2c(cc3c(c2OC)OCO3)CCN1S(=O)(=O)c1cn(C)cn1`, in that order: 0.324 µM and 5.93 µM.

Turning to `CCc1ccc(CCC(=O)Nc2ncc(Cc3ccc(Cl)cc3)s2)o1`, the GI50 is 0.342 µM.

Turning to `CC1=C(c2ccccc2)C(O)(c2ccccc2)C(C)C1=O` (centres undefined), the GI50 was 4.28 µM and the TGI amounted to 40.3 µM.

On to `CCN(CC)CCCNc1cc(OC)cc2nc3cc(Cl)ccc3nc12`, for which the GI50 was 1.15 µM and the concentration for total growth inhibition (TGI) turned out to be 2.67 µM. `Cc1ccc(/C=N/Nc2nc(Nc3ccccc3)nc(-n3nc(C)cc3C)n2)cc1`: the GI50 is 3.63 µM and the TGI was 17.1 µM.

For the compound `NCCCC[C@@H]1NC(=O)[C@H](CC(=O)O)NC(=O)CNC(=O)[C@H](CCCN=C(N)N)NC(=O)[C@@H](N)CSSC[C@@H](C(=O)O)NC(=O)[C@H](CC(=O)O)NC(=O)[C@@H]2CCCN2C(=O)CNC1=O`, the GI50 is more than 100 µM and the TGI was more than 100 µM. With `CC1=C2[C@@H](CC1)[C@]1(C)O[C@@](C(C)C)(C[C@H]1OC(=O)CO)[C@H]2OC(=O)C1CC1c1ccccc1` (some centres undefined), the GI50 is 13.2 µM and the TGI was determined as 29.5 µM. With `COc1ccc2c(c1)[nH]c(=O)c1c3cccc(F)c3cn21`, the concentration for 50% growth inhibition (GI50) is 0.187 µM and the TGI is 0.487 µM.
